# Assay results from PubChem BioAssay (NCI).
#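 Test compounds were applied to cells in 96-well plates for 48 hours at 5 doses. The concentration for 50% growth inhibition is given as GI50. TGI marks complete inhibition of growth.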
# Key:
# Assay in all cases: DTP human tumour cell line panel, 48 h
# 786-0 renal = test system: 786-0 renal
# A498 renal = test system: A498 renal
# A549 NSCLC = test system: A549 NSCLC
# ACHN renal = test system: ACHN renal
# BT-549 breast = test system: BT-549 breast
# CAKI-1 renal = test system: CAKI-1 renal
# CCRF-CEM leukemia = test system: CCRF-CEM leukemia
# COLO 205 colon = test system: COLO 205 colon
# DU-145 prostate = test system: DU-145 prostate
# EKVX NSCLC = test system: EKVX NSCLC
# HCC-2998 colon = test system: HCC-2998 colon
# HCT-116 colon = test system: HCT-116 colon
# HCT-15 colon = test system: HCT-15 colon
# HL-60(TB) leukemia = test system: HL-60(TB) leukemia
# HOP-62 NSCLC = test system: HOP-62 NSCLC
# HOP-92 NSCLC = test system: HOP-92 NSCLC
# HS 578T breast = test system: HS 578T breast
# HT29 colon = test system: HT29 colon
# IGROV1 ovarian = test system: IGROV1 ovarian
# K-562 leukemia = test system: K-562 leukemia
# KM12 colon = test system: KM12 colon
# LOX IMVI melanoma = test system: LOX IMVI melanoma
# M14 melanoma = test system: M14 melanoma
# MALME-3M melanoma = test system: MALME-3M melanoma
# MCF7 breast = test system: MCF7 breast
# MDA-MB-231 breast = test system: MDA-MB-231 breast
# MDA-MB-435 = test system: MDA-MB-435
# MOLT-4 leukemia = test system: MOLT-4 leukemia
# NCI-H226 lung = test system: NCI-H226 lung
# NCI-H23 lung = test system: NCI-H23 lung
# NCI-H460 lung = test system: NCI-H460 lung
# NCI-H522 lung = test system: NCI-H522 lung
# NCI/ADR-RES ovarian = test system: NCI/ADR-RES ovarian
# OVCAR-3 ovarian = test system: OVCAR-3 ovarian
# OVCAR-4 ovarian = test system: OVCAR-4 ovarian
# OVCAR-5 ovarian = test system: OVCAR-5 ovarian
# OVCAR-8 ovarian = test system: OVCAR-8 ovarian
# PC-3 prostate = test system: PC-3 prostate
# RPMI-8226 leukemia = test system: RPMI-8226 leukemia
# RXF 393 renal = test system: RXF 393 renal
# SF-268 CNS = test system: SF-268 CNS
# SF-295 CNS = test system: SF-295 CNS
# SF-539 CNS = test system: SF-539 CNS
# SK-MEL-2 melanoma = test system: SK-MEL-2 melanoma
# SK-MEL-28 melanoma = test system: SK-MEL-28 melanoma
# SK-MEL-5 melanoma = test system: SK-MEL-5 melanoma
# SK-OV-3 ovarian = test system: SK-OV-3 ovarian
# SN12C renal = test system: SN12C renal
# SNB-19 CNS = test system: SNB-19 CNS
# SNB-75 CNS = test system: SNB-75 CNS
# SW-620 colon = test system: SW-620 colon
# T-47D breast = test system: T-47D breast
# TK-10 renal = test system: TK-10 renal
# U251 CNS = test system: U251 CNS
# UACC-257 melanoma = test system: UACC-257 melanoma
# UACC-62 melanoma = test system: UACC-62 melanoma
# UO-31 renal = test system: UO-31 renal
# SR leukemia = test system: SR leukemia
compound,measurement,setting,value
CCOC(=O)C1=C(C)N=C2SC=C(c3ccccc3)N2[C@H]1c1cn[nH]c1-c1ccc(Cl)cc1,GI50,786-0 renal,5.2 µM
same,TGI,786-0 renal,17 µM
same,GI50,A498 renal,5.37 µM
same,TGI,A498 renal,18.2 µM
same,GI50,A549 NSCLC,6.73 µM
same,TGI,A549 NSCLC,24.7 µM
same,GI50,ACHN renal,3.03 µM
same,TGI,ACHN renal,11.7 µM
same,GI50,BT-549 breast,3.84 µM
same,TGI,BT-549 breast,13.9 µM
same,GI50,CAKI-1 renal,1.76 µM
same,TGI,CAKI-1 renal,3.56 µM
same,GI50,CCRF-CEM leukemia,3.12 µM
same,TGI,CCRF-CEM leukemia,14 µM
same,GI50,COLO 205 colon,3.53 µM
same,TGI,COLO 205 colon,15.1 µM
same,GI50,DU-145 prostate,6.12 µM
same,TGI,DU-145 prostate,18.8 µM
same,GI50,EKVX NSCLC,7.68 µM
same,TGI,EKVX NSCLC,22.3 µM
same,GI50,HCC-2998 colon,6.24 µM
same,TGI,HCC-2998 colon,20.4 µM
same,GI50,HCT-116 colon,3.11 µM
same,TGI,HCT-116 colon,13.3 µM
same,GI50,HCT-15 colon,3.19 µM
same,TGI,HCT-15 colon,11.7 µM
same,GI50,HL-60(TB) leukemia,2.85 µM
same,TGI,HL-60(TB) leukemia,7.98 µM
same,GI50,HOP-62 NSCLC,7.09 µM
same,TGI,HOP-62 NSCLC,22 µM
same,GI50,HOP-92 NSCLC,2.4 µM
same,TGI,HOP-92 NSCLC,8.7 µM
same,GI50,HS 578T breast,3.68 µM
same,TGI,HS 578T breast,34.5 µM
same,GI50,HT29 colon,4.32 µM
same,TGI,HT29 colon,13.7 µM
same,GI50,IGROV1 ovarian,2.33 µM
same,TGI,IGROV1 ovarian,7.61 µM
same,GI50,K-562 leukemia,3.67 µM
same,TGI,K-562 leukemia,23.2 µM
same,GI50,KM12 colon,4.69 µM
same,TGI,KM12 colon,17.5 µM
same,GI50,LOX IMVI melanoma,1.46 µM
same,TGI,LOX IMVI melanoma,3.43 µM
same,GI50,M14 melanoma,4.37 µM
same,TGI,M14 melanoma,19.2 µM
same,GI50,MALME-3M melanoma,1.6 µM
same,TGI,MALME-3M melanoma,3.45 µM
same,GI50,MCF7 breast,2.7 µM
same,TGI,MCF7 breast,13.8 µM
same,GI50,MDA-MB-231 breast,2.32 µM
same,TGI,MDA-MB-231 breast,7.96 µM
same,GI50,MDA-MB-435,4.07 µM
same,TGI,MDA-MB-435,15.2 µM
same,GI50,MOLT-4 leukemia,2.29 µM
same,TGI,MOLT-4 leukemia,7.41 µM
same,GI50,NCI-H226 lung,8.25 µM
same,TGI,NCI-H226 lung,46.1 µM
same,GI50,NCI-H23 lung,4.64 µM
same,TGI,NCI-H23 lung,19.6 µM
same,GI50,NCI-H460 lung,3.36 µM
same,TGI,NCI-H460 lung,12.7 µM
same,GI50,NCI-H522 lung,1.68 µM
same,TGI,NCI-H522 lung,3.44 µM
same,GI50,NCI/ADR-RES ovarian,5.97 µM
same,TGI,NCI/ADR-RES ovarian,27.6 µM
same,GI50,OVCAR-3 ovarian,3.21 µM
same,TGI,OVCAR-3 ovarian,12 µM
same,GI50,OVCAR-4 ovarian,4.66 µM
same,TGI,OVCAR-4 ovarian,16.6 µM
same,GI50,OVCAR-5 ovarian,6.06 µM
same,TGI,OVCAR-5 ovarian,19.9 µM
same,GI50,OVCAR-8 ovarian,4.46 µM
same,TGI,OVCAR-8 ovarian,19.6 µM
same,GI50,PC-3 prostate,3.98 µM
same,TGI,PC-3 prostate,17.3 µM
same,GI50,RPMI-8226 leukemia,2.65 µM
same,TGI,RPMI-8226 leukemia,9.39 µM
same,GI50,RXF 393 renal,5.32 µM
same,TGI,RXF 393 renal,19.1 µM
same,GI50,SF-268 CNS,3.65 µM
same,TGI,SF-268 CNS,16.6 µM
same,GI50,SF-295 CNS,7.96 µM
same,TGI,SF-295 CNS,22.2 µM
same,GI50,SF-539 CNS,5.68 µM
same,TGI,SF-539 CNS,18 µM
same,GI50,SK-MEL-2 melanoma,6.21 µM
same,TGI,SK-MEL-2 melanoma,19.3 µM
same,GI50,SK-MEL-28 melanoma,4.92 µM
same,TGI,SK-MEL-28 melanoma,16.8 µM
same,GI50,SK-MEL-5 melanoma,3.22 µM
same,TGI,SK-MEL-5 melanoma,12 µM
same,GI50,SK-OV-3 ovarian,7.39 µM
same,TGI,SK-OV-3 ovarian,20.1 µM
same,GI50,SN12C renal,4.51 µM
same,TGI,SN12C renal,17.3 µM
same,GI50,SNB-19 CNS,7.65 µM
same,TGI,SNB-19 CNS,20.7 µM
same,GI50,SNB-75 CNS,5.05 µM
same,TGI,SNB-75 CNS,18.3 µM
same,GI50,SW-620 colon,3.84 µM
same,TGI,SW-620 colon,14.4 µM
same,GI50,T-47D breast,3.13 µM
same,TGI,T-47D breast,22.4 µM
same,GI50,TK-10 renal,10.2 µM
same,TGI,TK-10 renal,22.2 µM
same,GI50,U251 CNS,3.8 µM
same,TGI,U251 CNS,16.4 µM
same,GI50,UACC-257 melanoma,10.1 µM
same,TGI,UACC-257 melanoma,24.1 µM
same,GI50,UACC-62 melanoma,2.85 µM
same,TGI,UACC-62 melanoma,12.5 µM
same,GI50,UO-31 renal,1.39 µM
same,TGI,UO-31 renal,9.53 µM
CCOC(=O)/C(=N/Nc1ccc(C)cc1)N1C(=S)C=C(C)NN(C)C1=S,TGI,A549 NSCLC,> 100 µM
same,TGI,ACHN renal,> 100 µM
same,TGI,BT-549 breast,> 100 µM
same,TGI,CAKI-1 renal,> 100 µM
same,TGI,CCRF-CEM leukemia,> 100 µM
same,TGI,COLO 205 colon,> 100 µM
same,TGI,DU-145 prostate,> 100 µM
same,TGI,EKVX NSCLC,> 100 µM
same,TGI,HCC-2998 colon,> 100 µM
same,TGI,HCT-116 colon,> 100 µM
same,TGI,HCT-15 colon,> 100 µM
same,TGI,HL-60(TB) leukemia,> 100 µM
same,TGI,HOP-92 NSCLC,> 100 µM
same,TGI,HS 578T breast,> 100 µM
same,TGI,HT29 colon,> 100 µM
same,TGI,IGROV1 ovarian,> 100 µM
same,TGI,K-562 leukemia,> 100 µM
same,TGI,KM12 colon,> 100 µM
same,TGI,M14 melanoma,> 100 µM
same,TGI,MCF7 breast,> 100 µM
same,TGI,MDA-MB-231 breast,> 100 µM
same,TGI,MDA-MB-435,> 100 µM
same,TGI,MOLT-4 leukemia,> 100 µM
same,TGI,NCI-H23 lung,> 100 µM
same,TGI,NCI-H460 lung,> 100 µM
same,TGI,NCI-H522 lung,> 100 µM
same,TGI,NCI/ADR-RES ovarian,> 100 µM
same,TGI,OVCAR-3 ovarian,> 100 µM
same,TGI,OVCAR-4 ovarian,> 100 µM
same,TGI,OVCAR-5 ovarian,> 100 µM
same,TGI,OVCAR-8 ovarian,> 100 µM
same,TGI,RPMI-8226 leukemia,> 100 µM
same,TGI,RXF 393 renal,83.7 µM
same,TGI,SF-268 CNS,> 100 µM
same,TGI,SF-295 CNS,39.3 µM
same,TGI,SF-539 CNS,> 100 µM
same,TGI,SK-MEL-2 melanoma,> 100 µM
same,TGI,SK-MEL-28 melanoma,> 100 µM
same,TGI,SK-MEL-5 melanoma,> 100 µM
same,TGI,SK-OV-3 ovarian,> 100 µM
same,TGI,SN12C renal,> 100 µM
same,TGI,SNB-19 CNS,> 100 µM
same,TGI,SNB-75 CNS,> 100 µM
same,TGI,SR leukemia,> 100 µM
same,TGI,SW-620 colon,> 100 µM
same,TGI,T-47D breast,> 100 µM
same,TGI,TK-10 renal,> 100 µM
same,TGI,U251 CNS,55.5 µM
same,TGI,UACC-257 melanoma,> 100 µM
same,TGI,UACC-62 melanoma,> 100 µM
same,TGI,UO-31 renal,> 100 µM
